Results from ChEMBL document CHEMBL2016461, “A new pancreatic lipase inhibitor from Broussonetia kanzinoki” (Bioorg Med Chem Lett, 2012).
Calls of active or inactive are those of the source. The calls are words filed in the database; no cut-off is given here.

How the values were obtained:
[1] = biological target: T1, Pancreatic triacylglycerol lipase (Sus scrofa, UniProt P00591); assay: Inhibition of porcine pancreatic lipase using p-nitrophenylbutyrate as substrate preincubated for 15 mins prior substrate addition measured after 15 mins by spectrophotometry
T1 sequence (P00591 whole entry): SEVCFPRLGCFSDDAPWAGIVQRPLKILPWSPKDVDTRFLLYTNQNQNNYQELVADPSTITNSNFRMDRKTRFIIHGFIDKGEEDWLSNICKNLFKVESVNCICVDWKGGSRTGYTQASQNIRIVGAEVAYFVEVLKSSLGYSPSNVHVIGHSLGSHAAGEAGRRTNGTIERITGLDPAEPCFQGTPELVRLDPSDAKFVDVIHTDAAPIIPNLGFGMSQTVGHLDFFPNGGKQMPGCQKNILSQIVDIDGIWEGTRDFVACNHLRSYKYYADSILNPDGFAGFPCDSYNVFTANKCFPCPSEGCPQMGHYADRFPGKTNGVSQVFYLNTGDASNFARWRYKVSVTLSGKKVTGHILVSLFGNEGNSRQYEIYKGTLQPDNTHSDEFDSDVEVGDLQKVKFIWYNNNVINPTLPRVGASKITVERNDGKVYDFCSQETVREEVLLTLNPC

[2] = biological target: T2, Pancreatic triacylglycerol lipase (Sus scrofa) (UniProt P00591); assay: Inhibition of porcine pancreatic lipase using p-nitrophenylbutyrate as substrate at 100 uM preincubated for 15 mins prior substrate addition measured after 15 mins by spectrophotometry
T2 sequence (whole entry): T1 sequence (P00591 whole entry)

[3] = biological target: T2, Pancreatic triacylglycerol lipase (Sus scrofa); settings: 1 uM
Description: Inhibition of porcine pancreatic lipase using p-nitrophenylbutyrate as substrate at 1 uM preincubated for 15 mins prior substrate addition measured after 15 mins by spectrophotometry

3T3-L1 [4] = assay: Antiadipogenic activity in mouse 3T3L1 cells assessed as cell differentiation measuring inhibition of fat accumulation at 100 uM after 8 days by oil red O-staining based spectrophotometry relative to control; type: functional; settings: 3T3-L1, 192 h
3T3-L1 [5] = assay: Antiadipogenic activity in mouse 3T3L1 cells assessed as cell differentiation measuring fat accumulation at 100 uM after 8 days by oil red O-staining based spectrophotometry relative to control; type: functional
[6] = biological target: T2, Pancreatic triacylglycerol lipase (Sus scrofa); assay: Non-competitive inhibition of porcine pancreatic lipase using p-nitrophenylbutyrate as substrate preincubated for 15 mins prior substrate addition measured after 15 mins by Lineweaver-Burk plot analysis

Structure (SMILES) | IC50 [1] [µM] | inhibition [2] [%] | inhibition [3] [%] | inhibition at 100 µM (3T3-L1 [4]) [%] | Activity (3T3-L1 [5]) [%] | inhibition [6]
COc1ccc(C2CCc3ccc(O)cc3O2)cc1O (stereo not drawn) | > 100 | 24.8 | – | – | – | –
COc1ccc(-c2oc3cc(O)ccc3c(=O)c2O)cc1 | > 100 | 21.8 | – | – | – | –
COc1ccc(-c2oc3cc(O)ccc3c(=O)c2O)cc1O | > 100 | 38.2 | – | – | – | –
Oc1ccc(C2CCc3ccc(O)cc3O2)cc1 (stereo not drawn) | 85.1 | 55.6 | – | – | – | –
CCCCCCCCCCC[C@@H](C[C@@H]1OC(=O)[C@H]1CCCCCC)OC(=O)[C@H](CC(C)C)NC=O | – | – | 60.4 | – | – | –
COc1ccc(CCCc2ccc(O)cc2)c(O)c1 [BROUSSONIN A] | 98.7 | 50.7 | – | – | – | –
COc1cc(O)ccc1CCCc1ccc(O)cc1 [BROUSSONIN B] | 75.4 | 40.4 | – | 48 | – | –
COC1=CC(=O)C=CC1(O)CCCc1ccc(O)cc1 (stereo not drawn) [BROUSSONONE A] | 28.4 | 71.9 | – | – | 66 | Active
